The source of these data is ChEMBL document CHEMBL3734682, “PPL catalyzed four-component PASE synthesis of 5-monosubstituted barbiturates: Structure and pharmacological properties” (2015).

One experiment concerns Bacillus subtilis. The experiment is described as follows: Antibacterial activity against clinical isolate Gram-positive Bacillus subtilis after 24 hrs by agar diffusion assay. The class given is functional.
A further experiment relates to Pseudomonas syringae. Nature of the experiment: Antibacterial activity against clinical isolate Gram-negative Pseudomonas syringae after 24 hrs by agar diffusion assay. Format: functional.
Another experiment relates to Proteus vulgaris. The experiment is described as follows: Antibacterial activity against clinical isolates Proteus vulgaris after 24 hrs by agar diffusion assay. Format: functional.
The test system of experiment [1] is DLA. Nature of the experiment: Induction of apoptosis in Swiss albino mouse DLA cells assessed as cell shrinkage at 25,50 and 100 ug/ml after 12 hrs by AO/EtBr staining based fluorescence microscopic analysis. Format: functional.
For experiment [2], the system named is DLA. The experiment is described as follows: Induction of apoptosis in Swiss albino mouse DLA cells assessed as membrane blebbing at 25,50 and 100 ug/ml after 12 hrs by AO/EtBr staining based fluorescence microscopic analysis. Format: functional, cell-based.
Experiment [3] has as its system DLA. Nature of the experiment: Induction of apoptosis in Swiss albino mouse DLA cells assessed as chromatin condensation at 25,50 and 100 ug/ml after 12 hrs by AO/EtBr staining based fluorescence microscopic analysis. The class given is functional, cell-based.
Experiment [4] has as its system DLA. Nature of the experiment: Induction of apoptosis in Swiss albino mouse DLA cells assessed as nuclear fragmentation at 25,50 and 100 ug/ml after 12 hrs by AO/EtBr staining based fluorescence microscopic analysis. Format: functional, cell-based.
The next experiment concerns Escherichia coli. The experiment is described as follows: Antibacterial activity against clinical isolates Escherichia coli after 24 hrs by agar diffusion assay. The class given is functional.
For the next experiment, the system named is Staphylococcus aureus. The experiment is described as follows: Antibacterial activity against clinical isolates Staphylococcus aureus after 24 hrs by agar diffusion assay. The class given is functional.
Experiment [5] relates to DLA. Nature of the experiment: Induction of apoptosis in Swiss albino mouse DLA cells assessed as nuclear fragmentation at 50 and 100 ug/ml after 12 hrs by AO/EtBr staining based fluorescence microscopic analysis. The class given is functional, cell-based.
Experiment [6] has as its system DLA. The experiment is described as follows: Induction of apoptosis in Swiss albino mouse DLA cells assessed as nucleolus pyknosis at 50 and 100 ug/ml after 12 hrs by AO/EtBr staining based fluorescence microscopic analysis. The class given is functional, cell-based.
Experiment [7] concerns DLA. Nature of the experiment: Induction of apoptosis in Swiss albino mouse DLA cells assessed as cytoplasmic vacuoles at 50 and 100 ug/ml after 12 hrs by AO/EtBr staining based fluorescence microscopic analysis. Format: functional, cell-based.
Experiment [8] can be described thus: Induction of apoptosis in Swiss albino mouse DLA cells at 100 ug/ml after 12 hrs by AO/EtBr staining based fluorescence microscopic analysis. The class given is functional.

Values after ≈ are worked out from the molar mass of the structure shown. Active and inactive are the calls of the source. The calls are words filed in the database; no cut-off is given here.

`Cc1[nH][nH]c(=O)c1[C@@H](c1ccc(F)cc1)c1c(O)[nH]c(=O)[nH]c1=O`: the minimum inhibitory concentration (MIC) with Bacillus subtilis is 100 µg/mL (≈ 301 µM); in the experiment with Pseudomonas syringae, 25 µg/mL (≈ 75.2 µM); against Proteus vulgaris, 100 µg/mL (≈ 301 µM). Further, the result in the experiment on DLA [1], in the experiment on DLA [2], in the experiment with DLA [3] and in the experiment on DLA [4] was Active.
For the compound `Cc1[nH][nH]c(=O)c1[C@@H](c1ccccc1Cl)c1c(O)[nH]c(=O)[nH]c1=O`, the MIC in the experiment on Escherichia coli, in the experiment with Bacillus subtilis, against Pseudomonas syringae, with Proteus vulgaris and with Staphylococcus aureus was 100 µg/mL (≈ 287 µM) each time. For the same compound, the result in the experiment with DLA [1], with DLA [2], in the experiment with DLA [3] and in the experiment on DLA [4] was Active.
For the compound `Cc1[nH][nH]c(=O)c1[C@@H](c1ccc(F)cc1)c1c(O)[nH]c(=S)[nH]c1=O`, the result with DLA [1], in the experiment on DLA [2], with DLA [3] and in the experiment on DLA [4] was Active.
For `Cc1[nH][nH]c(=O)c1[C@@H](c1ccccc1[N+](=O)[O-])c1c(O)[nH]c(=O)[nH]c1=O`, the MIC in the experiment with Escherichia coli, against Bacillus subtilis, in the experiment with Pseudomonas syringae and in the experiment with Proteus vulgaris was 100 µg/mL (≈ 278 µM) each time. Besides, the outcome in the experiment with DLA [1], in the experiment with DLA [2], with DLA [3] and with DLA [4] was Active.
On to `Cc1[nH][nH]c(=O)c1[C@@H](c1ccccc1)c1c(O)[nH]c(=O)[nH]c1=O`, for which the MIC against Bacillus subtilis and against Proteus vulgaris was 100 µg/mL (≈ 318 µM) in each case. Further, the outcome in the experiment on DLA [1], in the experiment with DLA [2], in the experiment on DLA [3] and with DLA [4] was Active.
Consider `CC1(C)S[C@@H]2[C@H](NC(=O)[C@H](N)c3ccccc3)C(=O)N2[C@H]1C(=O)O` [AMPICILLIN], for which the MIC against Escherichia coli, in the experiment with Bacillus subtilis, in the experiment on Pseudomonas syringae, in the experiment on Proteus vulgaris and against Staphylococcus aureus was 5 µg/mL (≈ 14.3 µM) each time.
The compound `CCC[C@H](c1c(C)[nH][nH]c1=O)c1c(O)[nH]c(=S)[nH]c1=O` returned an MIC in the experiment with Bacillus subtilis of 100 µg/mL (≈ 337 µM). The result in the experiment on DLA [1], in the experiment on DLA [2], in the experiment on DLA [3] and in the experiment on DLA [4] was Active.
Take `CCOC(=O)[C@H](c1c(C)[nH][nH]c1=O)c1c(O)[nH]c(=O)[nH]c1=O`: the result with DLA [5], in the experiment with DLA [6], in the experiment with DLA [7], with DLA [1], with DLA [2] and in the experiment on DLA [3] was Active. Besides, in the experiment with DLA [4], the outcome was Active. Besides, the MIC in the experiment with Escherichia coli, against Bacillus subtilis, against Pseudomonas syringae, against Proteus vulgaris and against Staphylococcus aureus was 100 µg/mL (≈ 322 µM) each time. Besides, the Activity in [8] came to 23%.
Consider `CCC[C@H](c1c(C)[nH][nH]c1=O)c1c(O)[nH]c(=O)[nH]c1=O`, for which the result in the experiment with DLA [5], in the experiment with DLA [6], in the experiment on DLA [7], in the experiment with DLA [1], in the experiment with DLA [2] and in the experiment on DLA [3] was Active. In addition, in the experiment with DLA [4], the result was Active. This compound also gave an MIC against Bacillus subtilis of 100 µg/mL (≈ 357 µM). The same compound yielded an Activity in experiment [8] of 12%.
In the case of `COc1ccccc1[C@H](c1c(C)[nH][nH]c1=O)c1c(O)[nH]c(=O)[nH]c1=O`, the MIC in the experiment on Escherichia coli, in the experiment with Bacillus subtilis, in the experiment on Pseudomonas syringae, in the experiment on Proteus vulgaris and in the experiment on Staphylococcus aureus was 100 µg/mL (≈ 290 µM) in each case. The result in the experiment on DLA [1], in the experiment on DLA [2], in the experiment with DLA [3] and in the experiment with DLA [4] was Active.
`Cc1[nH][nH]c(=O)c1[C@@H](c1ccc(Cl)cc1)c1c(O)[nH]c(=S)[nH]c1=O`: the MIC with Bacillus subtilis and in the experiment on Proteus vulgaris was 100 µg/mL (≈ 274 µM) in each case. In addition, the result in the experiment with DLA [1], in the experiment with DLA [2], in the experiment with DLA [3] and in the experiment with DLA [4] was Active.
For the compound `Cc1[nH][nH]c(=O)c1[C@@H](c1cccc(O)c1)c1c(O)[nH]c(=O)[nH]c1=O`, the MIC worked out at 25 µg/mL (≈ 75.7 µM) in the experiment with Bacillus subtilis, 100 µg/mL (≈ 303 µM) against Proteus vulgaris and 100 µg/mL (≈ 303 µM) with Staphylococcus aureus. In addition, the outcome in the experiment with DLA [1], with DLA [2], in the experiment with DLA [3] and in the experiment with DLA [4] was Active.
As for `CCCC[C@H](c1c(C)[nH][nH]c1=O)c1c(O)[nH]c(=O)[nH]c1=O`, the result in the experiment on DLA [1], with DLA [2], with DLA [3] and in the experiment with DLA [4] was Active.
For `Cc1[nH][nH]c(=O)c1[C@@H](c1ccccc1)c1c(O)[nH]c(=S)[nH]c1=O`, the outcome in the experiment on DLA [1], in the experiment on DLA [2], in the experiment on DLA [3] and in the experiment with DLA [4] was Active.
As to `Cc1[nH][nH]c(=O)c1[C@@H](c1cccc([N+](=O)[O-])c1)c1c(O)[nH]c(=O)[nH]c1=O`, the result with DLA [5], with DLA [6], with DLA [7], in the experiment on DLA [1], in the experiment with DLA [2] and in the experiment with DLA [3] was Active. In addition, the outcome in the experiment on DLA [4] was Active. Also, the MIC against Bacillus subtilis and against Proteus vulgaris was 100 µg/mL (≈ 278 µM) in each case. The same compound gave an Activity in [8] of 15%.
Turning to `Cc1[nH][nH]c(=O)c1[C@@H](c1ccc([N+](=O)[O-])cc1)c1c(O)[nH]c(=O)[nH]c1=O`, the outcome with DLA [5], with DLA [6], in the experiment with DLA [7], in the experiment on DLA [1], in the experiment on DLA [2] and in the experiment on DLA [3] was Active. In addition, in the experiment on DLA [4], the outcome was Active. The MIC against Bacillus subtilis and against Proteus vulgaris was 100 µg/mL (≈ 278 µM) in each case. The compound further displayed an Activity in [8] of 12%.
For `Cc1[nH][nH]c(=O)c1[C@@H](c1ccc(Cl)cc1)c1c(O)[nH]c(=O)[nH]c1=O`, the result in the experiment with DLA [5], with DLA [6], with DLA [7], with DLA [1], with DLA [2] and in the experiment on DLA [3] was Active. In addition, in the experiment with DLA [4], the result was Active. Further, the MIC with Bacillus subtilis was found to be 25 µg/mL (≈ 71.7 µM); with Proteus vulgaris it was 100 µg/mL (≈ 287 µM). The compound also yielded an Activity in [8] of 18%.
Turning to `Cc1[nH][nH]c(=O)c1[C@@H](c1cccnc1)c1c(O)[nH]c(=O)[nH]c1=O`, in the experiment on Bacillus subtilis, the MIC came to 100 µg/mL (≈ 317 µM). In addition, the outcome in the experiment with DLA [1], in the experiment on DLA [2], in the experiment on DLA [3] and in the experiment with DLA [4] was Active.
As to `Cc1[nH][nH]c(=O)c1[C@@H](c1cccc([N+](=O)[O-])c1)c1c(O)[nH]c(=S)[nH]c1=O`, the outcome with DLA [1], with DLA [2], in the experiment with DLA [3] and in the experiment with DLA [4] was Active.
For `NC[C@H]1O[C@H](O[C@H]2[C@H](O)[C@@H](O[C@H]3O[C@H](CO)[C@@H](O)[C@H](N)[C@H]3O)[C@H](N)C[C@@H]2N)[C@H](O)[C@@H](O)[C@@H]1O` [KANAMYCIN], the MIC against Escherichia coli amounted to 5 µg/mL (≈ 10.3 µM); in the experiment with Bacillus subtilis, 5 µg/mL (≈ 10.3 µM); in the experiment on Pseudomonas syringae it was 10 µg/mL (≈ 20.6 µM); with Proteus vulgaris, 5 µg/mL (≈ 10.3 µM); against Staphylococcus aureus, 80 µg/mL (≈ 165 µM).
With `COc1ccc([C@H](c2c(C)[nH][nH]c2=O)c2c(O)[nH]c(=O)[nH]c2=O)cc1`, the result in the experiment with DLA [5], with DLA [6], with DLA [7], in the experiment on DLA [1], in the experiment on DLA [2] and with DLA [3] was Active. Also, the outcome in the experiment with DLA [4] was Active. For the same compound, the MIC in the experiment with Bacillus subtilis and in the experiment on Proteus vulgaris was 100 µg/mL (≈ 290 µM) in each case. In [8], this compound had an Activity of 15%.
In the case of `Cc1[nH][nH]c(=O)c1[C@@H](c1cccc(Br)c1)c1c(O)[nH]c(=O)[nH]c1=O`, the outcome in the experiment with DLA [5], with DLA [6], with DLA [7], with DLA [1], in the experiment on DLA [2] and in the experiment with DLA [3] was Active. The result in the experiment on DLA [4] was Active. In addition, the values for the MIC in the experiment with Bacillus subtilis, in the experiment on Pseudomonas syringae and against Proteus vulgaris were 25 µg/mL (≈ 63.6 µM), 100 µg/mL (≈ 254 µM) and 100 µg/mL (≈ 254 µM), respectively. The compound further registered an Activity in experiment [8] of 13%.
